Tests used:
[1] = stated as known; cited from earlier work
[2] = test system: person who underwent hip replacement surgery because of coxarthrosis
Text: A person underwent hip replacement surgery because of coxarthrosis (their right leg being […] shorter). The surgery was initiated at 10:00 a.m. on Jul. 10, 2019 and completed around 11 o'clock a.m. on the same day.
Initially, use of crutches for three months was planned as in usual cases, based on the anticipated postoperative course (that is, the patient was expected to use both crutches for the first 1.5 months and one crutch for the subsequent 1.5 months).

In the case of `[2H][2H]` [D2, deuterium], the “superoxide eliminating effect compared with H2” value [1] is listed as “stronger superoxide eliminating effect than that of H2”.
In the case of `[HH]` [hydrogen, molecular hydrogen], the “time after the surgery at which the patient did not need to use crutches” value ([2]; hydrogen gas approximately 5.0%, approximately 200 mL/min, inhaled three to four hours per day from immediately after surgery, with rehabilitation, crutches for three months had been planned) is reported as 13 days, the postoperative recovery ([2]; hydrogen inhalation from immediately after hip replacement surgery, approximately 5.0% hydrogen, three to four hours per day, with rehabilitation) is reported as “achieved early postoperative recovery” and the “discharge from hospital (date)” value ([2]; surgery on Jul. 10, 2019, hydrogen inhalation from immediately after the surgery) is reported as “July 20”.

From US20210213049A1, “METHOD AND MOLECULAR HYDROGEN-CONTAINING COMPOSITION FOR PROMOTION OF POSTOPERATIVE RECOVERY” (MiZ Company Limited, priority 2020, published 2021)
